Test results published in patent US10662203B2, “Pyrido[2,3-b]indole compounds for the treatment and prophylaxis of bacterial infection” (Hoffmann-La Roche Inc., priority 2017, dated 2020).
≈ marks a conversion by molar mass, not a printed value.

Columns and labels:
[1] = tested on: K. pneumoniae (ATCC10031); test: 50% growth inhibitory concentration (IC50) determination assay; assay type: cell-based; settings: Klebsiella pneumoniae, Iso-Sensitest broth, 0.098 = detection limit
Summary of the method: (§1)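 Each strain, inoculated at ~5×10^5 CFU/mL in Iso-Sensitest broth, faces a two-fold compound series spanning 50 to 0.097 μM final concentration. Incubation proceeds at 35±2° C, and cell growth is tracked by absorbance at λ=600 nm every 20 minutes over 16 h.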

S. aureus (ATCC29213) = test: as above; assay type: cell-based; settings: Staphylococcus aureus, Iso-Sensitest broth, 0.098 = detection limit
Summary of the method: as §1

A. baumannii (ATCC17978) = test: as above; assay type: cell-based; settings: Acinetobacter baumannii, ATCC17978, A. baumannii ATCC17978; Iso-Sensitest broth; 0.098 = detection limit
Summary of the method: as §1

[2] = Lyophilisation solubility assay (LYSA); assay type: physicochemical; settings: phosphate buffer, pH 6.5, aqueous buffer, thermodynamic from solid, 0.05 M phosphate buffer, HPLC-UV
Procedure: Lyophilisation Solubility Assay (LYSA):
The solubility of compounds of present invention was assessed by LYSA assay. Samples were prepared in duplicate from 10 mM DMSO stock solutions (20 μL) diluted in 30 μL pure DMSO. After evaporation of DMSO with a centrifugal vacuum evaporator, the residue was dissolved in 0.05 M phosphate buffer (150 μL, pH 6.5), which was stirred for one hour and shook for two hours. After one night, the solution was filtered using a microtiter filter plate. Then the filtrate and its 1/10 dilution were analyzed by HPLC-UV.

| Compound | IC50 [1] | IC50 (S. aureus (ATCC29213)) | IC50 (A. baumannii (ATCC17978)) | solubility thermodynamic [2] |
| --- | --- | --- | --- | --- |
| CNc1cc(F)c(F)c2c1[nH]c1ncc(-c3cnc4c(c3)c(=O)c(C(=O)O)cn4C)c(N3CC[C@H]4CN(CCO)CC43)c12 (some centres unmarked) [Example 1.205] | < 0.098 µM | < 0.098 µM | 0.143 µM | 192 µg/mL (≈ 326 µM) |
| CNc1cc(F)c(F)c2c1[nH]c1ncc(-c3cnc4c(c3)c(=O)c(C(=O)O)cn4C(C)CO)c(N3CC[C@H]4CN(C)CC43)c12 (some centres unmarked) [Example 1.206] | < 0.098 µM | < 0.098 µM | 0.277 µM | 273 µg/mL (≈ 452 µM) |
| CNc1cc(F)cc2c1[nH]c1ncc(-c3cnc4c(c3)c(=O)c(C(=O)O)cn4C)c(N3CC4[C@H](CCN4C)C3)c12 (some centres unmarked) [Example 1.209] | < 0.098 µM | < 0.098 µM | 0.076 µM | 63 µg/mL (≈ 116 µM) |
| CNc1cc(F)cc2c1[nH]c1ncc(-c3cnc4c(c3)c(=O)c(C(=O)O)cn4C)c(N3CC[C@H]4CCN(C)C4C3)c12 (some centres unmarked) [Example 1.211] | < 0.098 µM | < 0.098 µM | 0.11 µM | 205 µg/mL (≈ 369 µM) |
| CNc1cc(F)c(F)c2c1[nH]c1ncc(-c3cnc4c(c3)c(=O)c(C(=O)O)cn4C)c(N3CC[C@H]4CN(C)C4C3)c12 (some centres unmarked) [Example 1.213] | < 0.098 µM | < 0.098 µM | 0.102 µM | 26 µg/mL (≈ 46.5 µM) |
| CNc1cc(F)c(F)c2c1[nH]c1ncc(-c3cnc4c(c3)c(=O)c(C(=O)O)cn4C)c(N3CCCC(N(C)C)C3)c12 (centres unmarked) [Example 1.215] | 0.103 µM | 0.114 µM | 0.252 µM | 48 µg/mL (≈ 85.5 µM) |
| CNc1cc(F)c(F)c2c1[nH]c1ncc(-c3cnc4c(c3)c(=O)c(C(=O)O)cn4C)c(N3CC4[C@H](CC[C@H]4N(C)C)C3)c12 (some centres unmarked) [Example 1.221] | < 0.098 µM | < 0.098 µM | 0.081 µM | 49 µg/mL (≈ 83.4 µM) |
| CNc1cc(F)c(F)c2c1[nH]c1ncc(-c3cnc4c(c3)c(=O)c(C(=O)O)cn4C)c(N3C[C@@H](O)[C@@H](N(C)C)C3)c12 [Example 1.223] | < 0.098 µM | < 0.098 µM | 0.298 µM | 472 µg/mL (≈ 838 µM) |
| CNc1cc(F)c(F)c2c1[nH]c1ncc(-c3cnc4c(c3)c(=O)c(C(=O)O)cn4NC)c(N3C[C@@H](O)[C@@H](N(C)C)C3)c12 [Example 1.224] | < 0.098 µM | 0.183 µM | 0.621 µM | 570 µg/mL (≈ 985 µM) |
| CNc1cc(F)c(F)c2c1[nH]c1ncc(-c3cnc4c(c3)c(=O)c(C(=O)O)cn4C)c(N3CC4CCCN(C)C4C3)c12 (centres unmarked) [Example 1.232] | < 0.098 µM | < 0.098 µM | 0.049 µM | 23 µg/mL (≈ 40.1 µM) |
| CNc1cc(F)c(F)c2c1[nH]c1ncc(-c3cnc4c(c3)c(=O)c(C(=O)O)cn4C)c(N3CCC4(CCN4C)C3)c12 (centres unmarked) [Example 1.237] | < 0.098 µM | < 0.098 µM | 0.194 µM | 145 µg/mL (≈ 259 µM) |
| CNc1cc(F)c(F)c2c1[nH]c1ncc(-c3cnc4c(c3)c(=O)c(C(=O)O)cn4NC)c(N3CC4[C@@H](C3)OCCN4C)c12 (some centres unmarked) [Example 1.242] | < 0.098 µM | < 0.098 µM | 0.189 µM | 24 µg/mL (≈ 40.6 µM) |
| CNc1cc(F)c(F)c2c1[nH]c1ncc(-c3cnc4c(c3)c(=O)c(C(=O)O)cn4C)c(N3CCC4CN(C)CCC43)c12 (centres unmarked) [Example 1.243] | 0.403 µM | 0.712 µM | 0.961 µM | 151 µg/mL (≈ 263 µM) |
| CNc1cc(F)c(F)c2c1[nH]c1ncc(-c3cnc4c(c3)c(=O)c(C(=O)O)cn4C)c(N3CC[C@@H]4C3CCN4C)c12 (some centres unmarked) [Example 1.245] | < 0.098 µM | < 0.098 µM | 0.293 µM | 542 µg/mL (≈ 969 µM) |
| CNc1cc(F)c(F)c2c1[nH]c1ncc(-c3cnc4c(c3)c(=O)c(C(=O)O)cn4C)c(N3CCC4C3CCCN4C)c12 (centres unmarked) [Example 1.246] | < 0.098 µM | 0.193 µM | 0.317 µM | > 612 µg/mL |
| CNc1cc(F)c(F)c2c1[nH]c1ncc(-c3cnc4c(c3)c(=O)c(C(=O)O)cn4NC)c(N3CCC4C3CCCN4C)c12 (centres unmarked) [Example 1.247] | < 0.098 µM | 0.217 µM | 0.344 µM | 516 µg/mL (≈ 877 µM) |
| CNc1cc(F)c(F)c2c1[nH]c1ncc(-c3cnc4c(c3)c(=O)c(C(=O)O)cn4C)c(N3CC[C@@H]4C3CN4C)c12 (some centres unmarked) [Example 1.248] | < 0.098 µM | 0.199 µM | 0.729 µM | 222 µg/mL (≈ 407 µM) |
| CNc1cc(F)c(F)c2c1[nH]c1ncc(-c3cnc4c(c3)c(=O)c(C(=O)O)cn4NC)c(N3CC[C@@H]4C3CCN4C)c12 (some centres unmarked) [Example 1.249] | < 0.098 µM | < 0.098 µM | 0.272 µM | 487 µg/mL (≈ 848 µM) |
| CNc1cc(F)c(F)c2c1[nH]c1ncc(-c3cnc4c(c3)c(=O)c(C(=O)O)cn4C)c(N3CC4[C@@H](C3)CN4C)c12 (some centres unmarked) [Example 1.252] | < 0.098 µM | < 0.098 µM | 0.361 µM | 41 µg/mL (≈ 75.2 µM) |
| CNc1cc(F)cc2c1[nH]c1ncc(-c3cnc4c(c3)c(=O)c(C(=O)O)cn4C)c(N3CC[C@H](N(C)C)C3)c12 [Example 1.253] | < 0.098 µM | < 0.098 µM | 0.092 µM | 209 µg/mL (≈ 395 µM) |
| CNc1cc(F)c(F)c2c1[nH]c1ncc(-c3cnc4c(c3)c(=O)c(C(=O)O)cn4C)c(N3CC[C@@H](CN(C)C)C3)c12 [Example 1.255] | < 0.098 µM | < 0.098 µM | 0.13 µM | 99 µg/mL (≈ 176 µM) |
| CNc1cc(F)c(F)c2c1[nH]c1ncc(-c3cnc4c(c3)c(=O)c(C(=O)O)cn4C)c(N3CC[C@H](CN(C)C)C3)c12 [Example 1.256] | < 0.098 µM | < 0.098 µM | 0.219 µM | 202 µg/mL (≈ 360 µM) |
| CCNn1cc(C(=O)O)c(=O)c2cc(-c3cnc4[nH]c5c(NC)cc(F)c(F)c5c4c3N3CC[C@@H](N(C)C)C3)cnc21 [Example 1.258] | < 0.098 µM | < 0.098 µM | < 0.098 µM | 17 µg/mL (≈ 29.5 µM) |
| CNc1cc(F)cc2c1[nH]c1ncc(-c3cnc4c(c3)c(=O)c(C(=O)O)cn4C3CCNC3)c(N3CCCC3)c12 (centres unmarked) [Example 1.259] | < 0.098 µM | < 0.098 µM | 0.533 µM | 17 µg/mL (≈ 31.4 µM) |
| CNc1cc(F)c(F)c2c1[nH]c1ncc(-c3cnc4c(c3)c(=O)c(C(=O)O)cn4C)c(N3CC4[C@H](CCN4CCCO)C3)c12 (some centres unmarked) [Example 1.260] | < 0.098 µM | < 0.098 µM | 0.558 µM | 277 µg/mL (≈ 459 µM) |
| CNc1cc(Cl)cc2c1[nH]c1ncc(-c3cnc4c(c3)c(=O)c(C(=O)O)cn4NC)c(N3CC[C@H]4CN(C)CC43)c12 (some centres unmarked) [Example 1.264] | < 0.098 µM | < 0.098 µM | 0.267 µM | 159 µg/mL (≈ 277 µM) |
| CNc1cc(Cl)c(F)c2c1[nH]c1ncc(-c3cnc4c(c3)c(=O)c(C(=O)O)cn4NC)c(N3CC[C@H]4CN(C)CC43)c12 (some centres unmarked) [Example 1.266] | < 0.098 µM | < 0.098 µM | 0.066 µM | 241 µg/mL (≈ 408 µM) |
| CNc1cc(Cl)c(F)c2c1[nH]c1ncc(-c3cnc4c(c3)c(=O)c(C(=O)O)cn4C)c(N3CC[C@H]4CN(C)CC43)c12 (some centres unmarked) [Example 1.267] | < 0.098 µM | < 0.098 µM | 0.072 µM | 104 µg/mL (≈ 181 µM) |
| CNc1cc(F)cc2c1[nH]c1ncc(-c3cnc4c(c3)c(=O)c(C(=O)O)cn4C)c(N3CCC4(C)CN(C)CC34)c12 (centres unmarked) [Example 1.272] | < 0.098 µM | < 0.098 µM | 0.112 µM | > 632 µg/mL |
